These results are taken from paper PMC8037406, “Symbiotic NCR Peptide Fragments Affect the Viability, Morphology and Biofilm Formation of Candida Species” (International Journal of Molecular Sciences, 2021).

Where two headings read alike, the source gives them in different places. Where a SMILES comes first, the peptide text is derived from it. Bridges are numbered along the chain shown (N, C = ends).

Assay [1] concerns C. auris. To be noted: C. auris; for reduction of MIC in the synergistic combination: compared with single use. As to the method:
Amphotericin B, due to its high toxicity was not included in this assay.
The effects of the different combinations of fluconazole and NCR335C17–33, NCR169C17–38 or NCR169C17–38ox were determined by standard checkerboard titration method. The fluconazole was tested in a concentration range from 6.25 to 75 µM, NCR169C17–38 and NCR169C17–38ox from 0.78 to 12.50 µM, NCR335C17–33 from 1.56 to 25 µM. The initial cell concentration in each well was 4 × 10^4 cell/mL. After the incubation for 72 h at 30 °C, the optical density of the cultures was detected at 620 nm in SPECTROstar Nano plate reader (BMG LabTech, Offenburg, Germany). The inhibitory concentrations were determined for each compound alone and in combinations. The experiments were carried out at least three times. The effect of combinations was evaluated by fractional inhibitory concentration (FIC) index. FIC = FICA + FICB. FICA = (MICA in combination)/(MICA alone); FICB = (MICB in combination)/(MICB alone)

Assay [2] concerns C. tropicalis CBS 94. The assay can be described thus: Yeast-hypha morphology, bright-field microscopy. The conditions noted are these: 0.78 µM peptide, 48 h, 1/8AIM medium. The class given is cell-based, Candida tropicalis. The source says: (§1) As hyphae formation is an important virulence factor, we investigated how the broad range activity peptides, NCR335C17–33, NCR169C17–38 and NCR169C17–38ox affect the morphological switch of C. albicans ATCC 10231 and C. tropicalis between the hyphal and yeast growth forms at sub-lethal concentrations (Figure 1). […] However, not only the morphology changed, but the cell number also declined, particularly in the latter case.
(§2) To induce morphological change of C. albicans and C. tropicalis YNB medium was changed for eight-fold diluted AIM-V+AlbuMAX (BSA) medium (Gibco, Thermo Fisher Scientific, Dublin, Ireland) referred to as 1/8AIM in the text.
(§3) Bright-field microscopy. The morphology of C. albicans ATCC 10231 and C. tropicalis cells was examined after 48 h incubation with the selected peptides (NCR335C17–33 and NCR169C17–38) by Zeiss Axio Observer inverted microscope (Carl Zeiss AG, Jena, Germany). The concentration of the NCR335C17–33 was 1.56 and 3.12 µM, NCR169C17–38 1.56 or 3.12 µM while NCR169C17–38ox 0.78 or 3.12 µM, the initial cell concentration was set to 4 × 10^4 cell/mL. Cells cultivated without peptides were used as control.

For assay [3], the system named is C. tropicalis CBS 94 biofilm. The assay can be described thus: Biofilm formation assay, XTT. The class given is cell-based, Candida tropicalis. To be noted: 72 h, 37 °C, 5 % CO2, 1/8AIM medium, p ≤ 0.0001.
For assay [4], the system named is Candida cells. The assay can be described thus: Fungicide effect, spotting of treated cells on solid YPD medium. The class given is cell-based, Candida species. The conditions noted are these: 1.56–25 µM, 24 h treatment, dilutions spotted on solid YPD medium, 48 h, 30 °C. How it is done: To determine whether the inhibitory effect of the peptides is generated by fungistatic or fungicide action, the Candida cells were treated with the peptides in the same concentration range (1.56–25 µM) as in the growth inhibition assay. After 24 h 5 µL sample from the untreated control cells and from the peptide treated cells was added to 95 µL water and diluted further 10- and 100-fold. From each dilution, 5 µL was placed on solid medium and the growth of the control and peptide treated cells was compared after 48 h incubation at 30 °C. This assay confirmed that all the effective peptides, NCR335N1–19, NCR335N7–21, NCR335C1–33, NCR335C13–33, NCR335C17–33, NCR169C17–38, NCR169C17–38ox, NCR169C17–38W10,20/A provoked growth inhibition through fungicidal actions (Figure A2). The fungicide concentrations, required for the complete elimination of the Candida cells, were either equal to or twice higher than the minimum inhibitory concentrations presented in Table 2.
The same initial experimental setting was used to determine the fungicide effect of the peptides. Five µL samples were taken from the cultures after 24 h and were added to 95 µL sterile distilled water, and diluted to 10- and 100-fold (indicated as 10^4, 10^3 and 10^2 based on the cell number of the control culture in Figure A2). Five µL from each dilution were placed on solid YPD medium and the growth of the strains was detected after 48 h incubation at 30 °C.

In assay [5] the test system is C. albicans ATCC 10231 biofilm. The experiment in a line: Biofilm formation assay, XTT. The class given is cell-based, Candida albicans. The conditions noted are these: 72 h, 37 °C, 5 % CO2, 1/8AIM medium, p ≤ 0.0001.
Assay [6] concerns C. albicans ATCC 10231. The experiment in a line: Yeast-hypha morphology, bright-field microscopy. To be noted: 3.12 µM peptide, 48 h, 1/8AIM medium, sub-lethal concentration. The format is cell-based, Candida albicans.
Description: as §1, §2, §3

In assay [7] the test system is Candida parapsilosis CBS 604. The assay can be described thus: microbe, parasite or virus in culture. The class given is cell-based. The conditions noted are these: micro-dilution, YNB medium, 4 × 10^4 cell/mL, 48 h, 30 °C, OD 620 nm; MIC = growth inhibition ≥90%; peptides 25 to 1.56 µM, fluconazole 200 to 0.78 µM; three biological repeats in triplicates. How it is done:
(§4) The antifungal activity of all the 14 peptides was tested against the following opportunistic human pathogen Candida species and strains: C. albicans strains ATCC 10231, SC 5314 and SZMC 1458, C. auris 0381, C. glabrata CBS 138, C. parapsilosis CBS 604 and C. tropicalis CBS 94.
(§5) All the Candida strains (Table 4) were grown overnight in YPD medium (1% pepton, 1% dextrose, 0.5% yeast extract) at 30 °C in water bath shaker prior to each experiments. The cells were harvested by centrifugation (5 min, 3000× g) washed twice with sterile distilled water and suspended in 5-fold diluted Difco Yeast Nitrogen Base w/o Amino Acids medium (Becton, Dickinson and Company, Sparks, MD, USA) supplemented with 1% dextrose, referred to as YNB medium in the text. Cells were counted in Bürker chamber and diluted to the proper concentration.
(§6) The growth inhibition of the peptides listed in Table 1 was tested in 96-well microtiter plates on Candida strains. The minimal inhibitory concentration (MIC) was determined with the micro-dilution method by adding 5 µL serially two-fold-diluted peptide solution to 95 µL of cell suspension (4 × 10^4 cell/mL) in YNB medium. After 48 h of incubation at 30 °C the optical density of the cultures was measured at 620 nm in SPECTROstar Nano plate reader (BMG LabTech, Offenburg, Germany). Minimal inhibitory concentration was defined as growth inhibition ≥90% compared to 100% growth of the untreated control. The experiments were carried out in three biological repeats always in triplicates.
In general terms: Broth dilution looks for growth in wells or tubes with falling amounts of substance.

The subject of assay [8] is C. albicans SC 5314 biofilm. The assay can be described thus: Biofilm formation assay, XTT. The class given is cell-based, Candida albicans. To be noted: 72 h, 37 °C, 5 % CO2, 1/8AIM medium, p ≤ 0.0001.
Assay [9] deals with C. albicans SZMC 1458 biofilm. The assay can be described thus: Biofilm formation assay, XTT. The class given is cell-based, Candida albicans. To be noted: 72 h, 37 °C, 5 % CO2, 1/8AIM medium, p ≤ 0.0001. (In general: Tetrazolium assays rely on reduction of a dye to a coloured formazan, in cell work by metabolically active cells.)
Assay [10] concerns Candida albicans. To be noted: cited from earlier work. The source says: In addition to bacteria, NCRs can also kill fungi. […] However, we noticed that, unlike the full sequence of NCR169, its C-terminal half was highly cationic (pI: 10.1) leading us to assume that this part may have antimicrobial activity.
The test system of assay [11] is Candida auris 0381. The experiment in a line: microbe, parasite or virus in culture. The class given is cell-based. The conditions noted are these: micro-dilution, YNB medium, 4 × 10^4 cell/mL, 48 h, 30 °C, OD 620 nm; MIC = growth inhibition ≥90%; peptides 25 to 1.56 µM, fluconazole 200 to 0.78 µM; three biological repeats in triplicates. As to the method:
as §4, §5, §6

Assay [12] deals with Candida tropicalis CBS 94. The experiment in a line: microbe, parasite or virus in culture. The format is cell-based. The conditions noted are these: micro-dilution, YNB medium, 4 × 10^4 cell/mL, 48 h, 30 °C, OD 620 nm; MIC = growth inhibition ≥90%; peptides 25 to 1.56 µM, fluconazole 200 to 0.78 µM; three biological repeats in triplicates. How it is done:
as §4, §5, §6
Wherever Minimal inhibitory concentration, Cau 0381 is given: key: -: no growth inhibition was observed.
Wherever Minimal inhibitory concentration, Cp CBS 604 is given: key: -: no growth inhibition was observed.
Wherever Minimal inhibitory concentration, Ct CBS 94 is given: key: -: no growth inhibition was observed.

Turning to `CC[C@H](C)[C@H](NC(=O)[C@H](CCCCN)NC(=O)[C@H](Cc1ccccc1)NC(=O)[C@H](CC(C)C)NC(=O)[C@@H]1CCCN1C(=O)[C@H](CCCCN)NC(=O)[C@H](CCCCN)NC(=O)[C@H](CO)NC(=O)[C@@H](N)CCCCN)C(=O)N[C@@H](Cc1c[nH]c2ccccc12)C(=O)N[C@@H](CCCCN)C(=O)N[C@H]1CSSC[C@@H](C(=O)N[C@H](C(=O)N[C@@H](CC(C)C)C(=O)N[C@@H](Cc2c[nH]c3ccccc23)C(=O)N[C@@H](Cc2ccc(O)cc2)C(=O)N[C@@H](CCCCN)C(N)=O)C(C)C)NC(=O)[C@H](C(C)C)NC(=O)[C@H](CC(N)=O)NC(=O)[C@H](CCC(=O)O)NC(=O)[C@H](C(C)C)NC1=O` [NCR169C17–38ox] (H-KSKKPLFKIWKCVENVCVLWYK-NH2; disulfide 12-17; N-terminus assumed), the Action result in [1] (NCR169C17–38 + NCR169C17–38ox) and in assay [1] (fluconazole + NCR169C17–38ox) was “Synergism” each time. Further, the “reduction of MIC in the synergistic combination” value in assay [1] (NCR169C17–38 + NCR169C17–38ox) and in assay [1] (fluconazole + NCR169C17–38ox) was 8 × throughout. For the same compound, in assay [2], the “effect on hyphal/yeast growth form” value is “the only form of the culture”. In addition, the “concentration significantly inhibiting biofilm formation, relative to MIC” value is given as “half MIC” in assay [3], “MIC” in assay [5], “one-fourth of the MIC” in [8] and “half MIC” in assay [9]. Also, the “growth inhibition by fungistatic or fungicide action” value (from here on “growth inhibition”) in assay [4] is on record as “fungicidal”. The “effect on hyphal growth” value in assay [6] is “completely inhibited the hyphal growth”. For the same compound, in [7], the “Minimal inhibitory concentration, Cp CBS 604” value was “-”.

On to “EDIGHIKYCGIVDDCYKSKKPLFKIWKCVENVCVLWYK [NCR169]”, for which the “activity against C. albicans” value in [10] (in the studied concentration range) was “inactive”.

On to `CC[C@H](C)[C@H](NC(=O)[C@H](CCCCN)NC(=O)[C@H](Cc1ccccc1)NC(=O)[C@H](CC(C)C)NC(=O)[C@@H]1CCCN1C(=O)[C@H](CCCCN)NC(=O)[C@H](CCCCN)NC(=O)[C@H](CO)NC(=O)[C@@H](N)CCCCN)C(=O)N[C@@H](C)C(=O)N[C@@H](CCCCN)C(=O)N[C@@H](CS)C(=O)N[C@H](C(=O)N[C@@H](CCC(=O)O)C(=O)N[C@@H](CC(N)=O)C(=O)N[C@H](C(=O)N[C@@H](CS)C(=O)N[C@H](C(=O)N[C@@H](CC(C)C)C(=O)N[C@@H](C)C(=O)N[C@@H](Cc1ccc(O)cc1)C(=O)N[C@@H](CCCCN)C(N)=O)C(C)C)C(C)C)C(C)C` [NCR169C17–38W10,20/A] (H-KSKKPLFKIAKCVENVCVLAYK-NH2; N-terminus assumed), for which the “concentration significantly inhibiting biofilm formation, relative to MIC” value is listed as “one-fourth of the MIC” in assay [3], “half MIC” in assay [5], “half MIC” in assay [8] and “MIC” in assay [9]. Further, the “growth inhibition” value in assay [4] is “fungicidal”. For the same compound, the “Minimal inhibitory concentration, Cau 0381” value in [11] was “-”. For the same compound, the “Minimal inhibitory concentration, Cp CBS 604” value in assay [7] is “-”.

For `CC[C@H](C)[C@H](NC(=O)[C@@H]1CCCN1C(=O)[C@@H](NC(=O)[C@H](CS)NC(=O)[C@H](Cc1ccc(O)cc1)NC(=O)[C@H](CO)NC(=O)[C@H](CCCCN)NC(=O)[C@H](CCCNC(=N)N)NC(=O)[C@H](CS)NC(=O)[C@H](CCCNC(=N)N)NC(=O)[C@@H](NC(=O)[C@H](CC(N)=O)NC(=O)[C@H](C)NC(=O)[C@H](CCCNC(=N)N)NC(=O)[C@H](CCCNC(=N)N)NC(=O)[C@H](CC(C)C)NC(=O)[C@H](CCCCN)NC(=O)[C@@H]1CCCN1C(=O)[C@H](CS)NC(=O)[C@H](CC(=O)O)NC(=O)[C@H](CCCCN)NC(=O)[C@H](CC(N)=O)NC(=O)[C@@H](NC(=O)[C@H](CCCCN)NC(=O)[C@H](CS)NC(=O)[C@H](CC(=O)O)NC(=O)[C@H](CO)NC(=O)[C@H](CC(C)C)NC(=O)[C@@H](NC(=O)[C@H](CC(C)C)NC(=O)[C@H](CO)NC(=O)[C@H](Cc1ccccc1)NC(=O)[C@@H](N)Cc1c[nH]cn1)[C@@H](C)CC)[C@@H](C)O)C(C)C)C(C)C)C(N)=O` [NCR335C1–33] (H-HFSLILSDCKTNKDCPKLRRANVRCRKSYCVPI-NH2; N-terminus assumed), the “growth inhibition” value in [4] is recorded as “fungicidal”. Further, the “Minimal inhibitory concentration, Ct CBS 94” value in assay [12] is “-”. The “Minimal inhibitory concentration, Cau 0381” value in assay [11] is given as “-”.

The MIC is the least concentration at which growth counts as inhibited. Take “RLNTTFRPLNFKMLRFWGQNRNIMKHRGQKVHFSLILSDCKTNKDCPKLRRANVRCRKSYCVPI [NCR335, 64 amino acid long cationic nodule specific cysteine-rich peptide of Medicago truncatula]”: in assay [10] (C. albicans), the MIC is 1.4 to 2.5 µM and the “minimal inhibitory concentrations (MIC), range over the listed cationic NCR peptides” value was 1.4 to 10 µM.
